Results on one compound are retold here after article PMC9177418, “Global analysis of biosynthetic gene clusters reveals conserved and unique natural products in entomopathogenic nematode-symbiotic bacteria” (Nature Chemistry, 2022).

Common to all, as to assay type: biochemical
Test [1] has as its target T1, yeast 20S proteasome β2 subunit (trypsin-like) (Saccharomyces cerevisiae, UniProt P25043).
T1 construct: gene PUP1; purified yeast 20S proteasome core particle (yCP); with other subunits of the yeast 20S proteasome core particle (α1–7β1–7β1–7α1–7)
T1 sequence (P25043 30-261): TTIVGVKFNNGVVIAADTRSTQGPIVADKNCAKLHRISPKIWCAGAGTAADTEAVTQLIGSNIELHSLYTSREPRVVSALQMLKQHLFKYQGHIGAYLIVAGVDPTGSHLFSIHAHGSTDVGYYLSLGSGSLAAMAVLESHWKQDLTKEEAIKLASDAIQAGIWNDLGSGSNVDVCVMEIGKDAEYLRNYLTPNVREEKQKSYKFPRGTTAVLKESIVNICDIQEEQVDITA
Nature of the test: X-ray crystal structure ([…] soak; ligand map diffuse at β[…]); fluorogenic inhibition assay with purified yCP.

Test [2] addresses T2, yeast 20S proteasome β5 subunit (chymotrypsin-like) (Saccharomyces cerevisiae, UniProt P30656).
T2 construct: gene PRE2; purified yeast 20S proteasome core particle (yCP); with other subunits of the yeast 20S proteasome core particle (α1–7β1–7β1–7α1–7)
T2 sequence (P30656 76-287): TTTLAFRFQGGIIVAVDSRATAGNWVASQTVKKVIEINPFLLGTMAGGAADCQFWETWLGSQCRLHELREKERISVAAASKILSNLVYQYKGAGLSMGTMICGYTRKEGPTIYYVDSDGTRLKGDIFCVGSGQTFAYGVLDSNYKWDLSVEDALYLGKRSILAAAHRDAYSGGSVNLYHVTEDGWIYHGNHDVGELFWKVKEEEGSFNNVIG
Nature of the test: X-ray crystal structure at […] Å; fluorogenic Suc-Leu-Leu-Val-Tyr-AMC inhibition assay with purified yCP.

For test [3], the target named is T3, yeast 20S proteasome β1 subunit (caspase-like) (Saccharomyces cerevisiae, UniProt P38624).
T3 construct: gene PRE3; purified yeast 20S proteasome core particle (yCP); with other subunits of the yeast 20S proteasome core particle (α1–7β1–7β1–7α1–7)
T3 sequence (P38624 20-215): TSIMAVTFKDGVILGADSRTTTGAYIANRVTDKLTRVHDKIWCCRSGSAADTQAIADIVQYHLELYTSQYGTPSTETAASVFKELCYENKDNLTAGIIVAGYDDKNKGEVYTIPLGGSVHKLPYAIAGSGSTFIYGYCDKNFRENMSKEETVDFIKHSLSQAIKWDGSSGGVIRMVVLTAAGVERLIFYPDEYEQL
Put plainly: X-ray crystal structure ([…] soak; ligand map diffuse at β[…]); fluorogenic inhibition assay with purified yCP.

As for `CC(C)[C@@H]1C(=O)O[C@H]1C(=O)O` [compound 1, 3-isopropyl-4-oxo-2-oxetanecarboxylic acid], the IC50 in test [1] worked out at 60 µM; in test [2], 6.2 µM; in test [3], 625 µM.
